The NIST ThermoML archive (doi:10.1021/je9010486)
± gives the expanded uncertainty stated by the source.

Assay: cn = amount concentration of the nth substance listed, in mol/dm3
Settings: 101 kPa, Liquid

## OC[C@@H](O)[C@@H](O)[C@H](O)[C@H](O)CO [mannitol] + O
293.15 K, c1 = 0.1
  mass density: 1004.82 ± 1.4 kg/m3
  viscosity: 1.096 ± 0.027 mPa·s
293.15 K, c1 = 0.2
  mass density: 1010.89 ± 1.5 kg/m3
  viscosity: 1.143 ± 0.028 mPa·s
293.15 K, c1 = 0.3
  mass density: 1016.96 ± 1.6 kg/m3
  viscosity: 1.203 ± 0.029 mPa·s
293.15 K, c1 = 0.4
  mass density: 1023.03 ± 1.7 kg/m3
  viscosity: 1.285 ± 0.031 mPa·s
293.15 K, c1 = 0.5
  mass density: 1029.1 ± 1.8 kg/m3
  viscosity: 1.336 ± 0.032 mPa·s
293.15 K, c1 = 0.6
  mass density: 1035.17 ± 1.9 kg/m3
  viscosity: 1.4 ± 0.033 mPa·s
293.15 K, c1 = 0.7
  mass density: 1041.24 ± 2 kg/m3
  viscosity: 1.472 ± 0.035 mPa·s
293.15 K, c1 = 0.8
  mass density: 1047.31 ± 2.1 kg/m3
  viscosity: 1.553 ± 0.037 mPa·s
303.15 K, c1 = 0.1
  mass density: 1002.13 ± 1.3 kg/m3
  viscosity: 0.8694 ± 0.022 mPa·s
303.15 K, c1 = 0.2
  mass density: 1008.14 ± 1.4 kg/m3
  viscosity: 0.9398 ± 0.023 mPa·s
303.15 K, c1 = 0.3
  mass density: 1014.15 ± 1.5 kg/m3
  viscosity: 0.986 ± 0.024 mPa·s
303.15 K, c1 = 0.4
  mass density: 1020.16 ± 1.6 kg/m3
  viscosity: 1.036 ± 0.025 mPa·s
303.15 K, c1 = 0.5
  mass density: 1026.17 ± 1.7 kg/m3
  viscosity: 1.085 ± 0.026 mPa·s
303.15 K, c1 = 0.6
  mass density: 1032.18 ± 1.8 kg/m3
  viscosity: 1.142 ± 0.028 mPa·s
303.15 K, c1 = 0.7
  mass density: 1038.19 ± 1.9 kg/m3
  viscosity: 1.197 ± 0.029 mPa·s
303.15 K, c1 = 0.8
  mass density: 1044.2 ± 2 kg/m3
  viscosity: 1.253 ± 0.03 mPa·s
313.15 K, c1 = 0.1
  mass density: 998.28 ± 1.3 kg/m3
  viscosity: 0.6961 ± 0.018 mPa·s
313.15 K, c1 = 0.2
  mass density: 1004.5 ± 1.4 kg/m3
  viscosity: 0.7468 ± 0.019 mPa·s
313.15 K, c1 = 0.3
  mass density: 1010.72 ± 1.5 kg/m3
  viscosity: 0.7918 ± 0.02 mPa·s
313.15 K, c1 = 0.4
  mass density: 1016.94 ± 1.6 kg/m3
  viscosity: 0.8201 ± 0.021 mPa·s
313.15 K, c1 = 0.5
  mass density: 1023.16 ± 1.7 kg/m3
  viscosity: 0.8642 ± 0.022 mPa·s
313.15 K, c1 = 0.6
  mass density: 1029.38 ± 1.8 kg/m3
  viscosity: 0.8954 ± 0.023 mPa·s
313.15 K, c1 = 0.7
  mass density: 1035.6 ± 1.9 kg/m3
  viscosity: 0.9383 ± 0.023 mPa·s
313.15 K, c1 = 0.8
  mass density: 1041.82 ± 2 kg/m3
  viscosity: 0.9934 ± 0.025 mPa·s
323.15 K, c1 = 0.1
  mass density: 994.21 ± 1.4 kg/m3
  viscosity: 0.5782 ± 0.016 mPa·s
323.15 K, c1 = 0.2
  mass density: 999.82 ± 1.3 kg/m3
  viscosity: 0.6062 ± 0.016 mPa·s
323.15 K, c1 = 0.3
  mass density: 1005.23 ± 1.4 kg/m3
  viscosity: 0.6356 ± 0.017 mPa·s
323.15 K, c1 = 0.4
  mass density: 1011.02 ± 1.5 kg/m3
  viscosity: 0.6706 ± 0.018 mPa·s
323.15 K, c1 = 0.5
  mass density: 1017.33 ± 1.6 kg/m3
  viscosity: 0.7104 ± 0.018 mPa·s
323.15 K, c1 = 0.6
  mass density: 1024.45 ± 1.7 kg/m3
  viscosity: 0.7458 ± 0.019 mPa·s
323.15 K, c1 = 0.7
  mass density: 1030.32 ± 1.8 kg/m3
  viscosity: 0.7849 ± 0.02 mPa·s
323.15 K, c1 = 0.8
  mass density: 1036.78 ± 1.9 kg/m3
  viscosity: 0.8456 ± 0.021 mPa·s
